Assay results from publication PMC12655060, “Modified Hevein-like Peptide from Amaranthus caudatus as a Promising Agent Against Pathogenic Candida Species” (Pharmaceutics, 2025).
Values after ≈ are worked out from the molar mass of the structure shown. Values joined by “and” are separate entries in the source; they are usually repeats but may differ in a detail not shown here. Equal entries are not always repeated. Where two headings read alike, the source gives them in different places. Positions of bridges follow the written chain, without caps; N, C: chain ends. No end group written: not given here.

Key:
[1] = test system: C. albicans 8.2; assay: Antifungal microdilution assay; format: cell-based; conditions: Candida albicans, Sabouraud broth
Procedure: (§1) Briefly, fungal cells at a concentration of 4 × 10^4 cells/mL in the Sabouraud broth were mixed with equal volumes of serial dilutions of the peptide in water (final volume 100 μL and pH 6.0) and incubated at 30 °C for 24 h. Inhibition of fungal growth was assessed relative to the peptide-free control, based on absorbance at 630 nm and microscopic analysis. MIC50 and MIC were defined as minimal concentrations of the peptide, causing 50 and 100% inhibition of fungal growth. […] The effects of heating and reduction in disulfide bonds on the activity of the peptide towards C. albicans ATCC 18804 was also tested. […] Tobacco defensin NaD1, whose structure is also stabilized by disulfide bonds, was used for comparison in these experiments. The effect of reduced L-glutathione (AppliChem, Darmstadt, Germany), a component of RPMI-1640 medium, at a final concentration of 3.25 μM, was also studied.
(§2) Each experiment was conducted twice in triplicate. The microplate wells were pre-treated with 0.1% BSA to minimize adsorption of antifungal agents.

[2] = test system: C. albicans ATCC 18804; format: cell-based, Candida albicans
Procedure: (§3) Serial dilutions of the mixture of two combinable substances were added to the equal volumes of fungal cell suspensions in this case. […] Caspofungin or ebselen in 1% DMSO as well as voriconazole in 1% methanol were tested in these experiments.

[3] = test system: C. albicans 8.2; assay: Prevention of adhesion to the plastic surface; format: cell-based, Candida albicans; conditions: for Cell adhesion, % / Inhibition of adhesion, %: plastic surface
Procedure: The plates were incubated for 1.5 h at 37 °C; after that, plate wells were washed twice with PBS to remove unattached C. albicans cells. Adherent cells were detached by microplate incubation for 45 min with trypsin/EDTA solution. Enzymatic activity was stopped by an addition of 10% FBS. After that the well contents were scraped, diluted 100-fold with PBS, and plated on Sabouraud agar with glucose and chloramphenicol. In this case, adhesion was calculated as ((N × 100)/5 × 10^5) × 100%, and adhesion inhibition was calculated as described above. These experiments were carried out twice in triplicate.

[4] = test system: C. albicans ATCC 18804; assay: Resistance induction experiments (serial passage); format: cell-based, Candida albicans; conditions: passaging at 0.25 × MIC for 24 days; mAc-AMP2 8th and 24th, caspofungin 21, LL-37 24th passage
Procedure: For comparison, the echinocandin caspofungin, human cathelicidin LL-37, and tobacco defensin NaD1 were used in these experiments. C. albicans ATCC 18804 or ATCC 10231 at a concentration of 4 × 10^4 cells/mL were added to serial dilutions of antifungal agents. The 96-well microplates were incubated overnight at 30 °C and MIC values were determined as described above. […] Sequential passaging followed by MIC determination continued for 24 days. […] After that whole cultures as well as single colonies were used for MICs determination to confirm the stability of acquired resistance to the peptide.

[5] = test system: C. albicans ATCC 18804; set-up: method as in PMID 39770352, PMID 39337545; conditions: 2 h, same conditions; cited from earlier work
[6] = test system: C. albicans 8.2; format: cell-based, Candida albicans; conditions: for [A]/MICA: ratio for mAc-AMP2 in the combination; for [B]/MICB: ratio for the named agent in the combination
Procedure: as §3

[7] = test system: C. albicans 9.1; format: cell-based, Candida albicans; conditions: for [A]/MICA: ratio for mAc-AMP2 in the combination; for [B]/MICB: ratio for the named agent in the combination
Procedure: as §3

[8] = test system: C. albicans ATCC 18804; conditions: for MIC, RPMI-1640 / MIC, ½Sabouraud broth: Table S4; for antifungal activity in RPMI-1640: at a concentration of 50 μM
Procedure: as §1, §2

[9] = test system: C. albicans ATCC 18804; assay: Calcofluor White binding assay (cell wall chitin content); format: cell-based, Candida albicans; conditions: at MIC
Procedure: Polyene antimycotic amphotericin B (AmB) was also used in these experiments. […] Cell cultures were harvested, washed twice with PBS, and stained with 20 μg/mL CFW in PBS for 30 min. After that stained cells were washed three times with PBS and the cell density of each group was adjusted to 10^6 cells/mL using Cell Counter LUNA-II (Logos Biosystems, Anyang-si, Republic of Korea) and trypan blue. Unstained or stained untreated by antifungal agent cells were used as negative and positive controls, respectively. Fluorescence intensities were measured at 20 °C using a Hitachi F-2710 spectrofluorometer (Hitachi High Technologies America Inc., Pleasanton, CA, USA) with excitation and emission wavelengths of 350 nm (10 nm width) and 435 nm, respectively. Results were expressed as % of fluorescence intensity in comparison to positive control. This study was performed twice in triplicate.

[10] = test system: C. albicans 9.1; conditions: 12.5 μM (2 × MIC) and 25 μM (4 × MIC), same conditions; cited from earlier work
[11] = test system: C. albicans 8.2; conditions: 12.5 μM (2 × MIC) and 25 μM (4 × MIC), same conditions; cited from earlier work
[12] = test system: Caco-2 cells in a monolayer; assay: Cytotoxicity assay (resazurin); format: cell-based, human; conditions: 12.5 µM, 24 h
Procedure: Then 10 µL of resazurin at a concentration of 0.7 mM was added and the incubation was continued for 4 h. Untreated cells and cells in the presence of 0.1% Triton X-100 were used as negative and positive controls, respectively. The cell viability was estimated by resorufin fluorescence registered at 595 nm as (Fsample/Fcontrol) × 100%. Wells containing no cells were used to subtract background fluorescence. This experiment was carried out twice in duplicate.

[13] = combination of the named agent with mAc-AMP2
[14] = ratio of mAc-AMP2 concentration in the combination with the named agent to its MIC
[15] = ratio of the named agent's concentration in combination with mAc-AMP2 to its MIC

## CC[C@H](C)C[C@H](C)CCCCCCCCC(=O)N[C@H]1C[C@@H](O)[C@@H](NCCN)NC(=O)[C@@H]2[C@@H](O)CCN2C(=O)[C@H]([C@H](O)CCN)NC(=O)[C@H]([C@H](O)[C@@H](O)c2ccc(O)cc2)NC(=O)[C@@H]2C[C@@H](O)CN2C(=O)[C@H]([C@@H](C)O)NC1=O [Caspofungin]
[1]
  MIC: 0.04 µg/mL (≈ 0.0366 µM)
[2]; [13]
  FICI: 2
[2]; [14]
  [A]/MICA: 1
[2]; [15]
  [B]/MICB: 1
[3]; Candida albicans, 8.2, read-out: Inhibition of adhesion
  inhibition at 5.12 µg/mL: ~40%
[4]
  MIC increase during serial passage: eight-fold
[5]
  effect on PI uptake: no effects

## O=c1c2ccccc2[se]n1-c1ccccc1 [Ebselen]
[6]; combination of the named agent with mAc-AMP2, strain 8.2
  FICI: 0.75
[6]; strain 8.2
  [A]/MICA: 0.5
  [B]/MICB: 0.25
[7]; combination of the named agent with mAc-AMP2, strain 9.1
  FICI: 1
[7]; strain 9.1
  [A]/MICA: 0.5
  [B]/MICB: 0.5
[2]; [13]
  FICI: 1
[2]; [14]
  [A]/MICA: 0.5
[2]; [15]
  [B]/MICB: 0.5

## CC[C@H](C)[C@H](NC(=O)[C@H](CCCCN)NC(=O)[C@H](CCC(=O)O)NC(=O)[C@H](CCCCN)NC(=O)[C@H](CO)NC(=O)[C@H](CCCCN)NC(=O)[C@H](CCCNC(=N)N)NC(=O)[C@H](Cc1ccccc1)NC(=O)[C@H](Cc1ccccc1)NC(=O)[C@H](CC(=O)O)NC(=O)CNC(=O)[C@H](CC(C)C)NC(=O)[C@@H](N)CC(C)C)C(=O)NCC(=O)N[C@@H](CCCCN)C(=O)N[C@@H](CCC(=O)O)C(=O)N[C@@H](Cc1ccccc1)C(=O)N[C@@H](CCCCN)C(=O)N[C@@H](CCCNC(=N)N)C(=O)N[C@H](C(=O)N[C@H](C(=O)N[C@@H](CCC(N)=O)C(=O)N[C@@H](CCCNC(=N)N)C(=O)N[C@H](C(=O)N[C@@H](CCCCN)C(=O)N[C@@H](CC(=O)O)C(=O)N[C@@H](Cc1ccccc1)C(=O)N[C@@H](CC(C)C)C(=O)N[C@@H](CCCNC(=N)N)C(=O)N[C@@H](CC(N)=O)C(=O)N[C@@H](CC(C)C)C(=O)N[C@H](C(=O)N1CCC[C@H]1C(=O)N[C@@H](CCCNC(=N)N)C(=O)N[C@H](C(=O)N[C@@H](CCC(=O)O)C(=O)N[C@@H](CO)C(=O)O)[C@@H](C)O)C(C)C)[C@@H](C)CC)C(C)C)[C@@H](C)CC [LL-37]
[8]
  MIC, RPMI-1640: > 50 µM
  antifungal activity in RPMI-1640: did not exhibit antifungal activity
[8]; ½Sabouraud broth
  MIC, ½Sabouraud broth: 12.5 µM (≈ 56.2 µg/mL)
[8]; microdilution, ½Sabouraud broth, pH 6.0, no salts, no FBS, 30 °C, 24 h, 100% growth inhibition, twice in triplicate
  MIC: 12.5 µM
[2]; [14]
  [A]/MICA: 0.5
[2]; [15]
  [B]/MICB: 0.5
[4]
  MIC increase during serial passage: two-fold

## C[C@@H](c1ncncc1F)[C@](O)(Cn1cncn1)c1ccc(F)cc1F [Voriconazole]
[2]; combination with mAc-AMP2, for voriconazole MIC50 values were used
  FICI: 2
[2]; ratio for mAc-AMP2 in the combination, for voriconazole MIC50 values were used
  [A]/MICA: 1
[2]; ratio for voriconazole in the combination, MIC50 values were used
  [B]/MICB: 1

## C[C@@H]1[C@H](O)[C@@H](C)/C=C/C=C/C=C/C=C/C=C/C=C/C=C/[C@H](O[C@@H]2O[C@H](C)[C@@H](O)[C@H](N)[C@@H]2O)C[C@@H]2O[C@](O)(C[C@@H](O)C[C@@H](O)[C@H](O)CC[C@@H](O)C[C@@H](O)CC(=O)O[C@H]1C)C[C@H](O)[C@H]2C(=O)O [amphotericin B]
[9]
  fluorescence intensity of Calcofluor White-stained cells: reduced
[5]
  effect on PI uptake: no effects

## GIGDPVTCLKSGAICHPVFCPRRYKQIGTCGLPGTKCCKKP (disulfide 8-37, 15-30, 20-38 (inferred)) [HBD2]
[8]
  MIC, RPMI-1640: > 50 µM
  antifungal activity in RPMI-1640: did not exhibit antifungal activity
[8]; ½Sabouraud broth
  MIC, ½Sabouraud broth: 6.25 µM
[2]; [14]
  [A]/MICA: 0.5
[2]; [15]
  [B]/MICB: 0.5

## RECKTESNTFPGICITKPPCRKACISEKFTDGHCSKILRRCLCTKPC (disulfide 3-47, 14-34, 20-41, 24-43 (inferred)) [NaD1]
[8]; ATCC 18804, 24 h
  MFC: 25 µM
  MIC: 6.25 µM
[8]; ATCC 18804, 24 h, pH 6
  MFC: 12.5 µM
  MIC: 6.25 µM
[6]; 8.2
  FICI: 1
[6]; strain 8.2
  [A]/MICA: 0.5
  [B]/MICB: 0.5
[7]; 9.1
  FICI: 1
[7]; strain 9.1
  [A]/MICA: 0.5
  [B]/MICB: 0.5
[2]
  FICI: 0.75
[2]; [14]
  [A]/MICA: 0.5
[2]; [15]
  [B]/MICB: 0.25
[3]; 3.13 μM
  Cell adhesion, %: 5.29%
[3]; 6.25 μM
  Cell adhesion, %: 0.96%
  Inhibition of adhesion, %: 81.32%
[3]; 12.5 μM, Sabouraud broth, 1.5 h, 37 °C
  Cell adhesion, %: 0.15%
[3]; 12.5 μM
  Inhibition of adhesion, %: 97.12% and ~100%
[3]; 25 μM, Sabouraud broth, 1.5 h, 37 °C
  Cell adhesion, %: 0.05%
[3]; 25 μM
  Inhibition of adhesion, %: 99.03%
[4]
  MIC increase during serial passage: no change in the sensitivity
[10]
  effect on adhesion to the Caco-2 cell monolayer: effectively inhibited the adhesion
[11]
  effect on adhesion to the Caco-2 cell monolayer: effectively inhibited the adhesion

## melittin
[12]
  cell death: about 100%
